Data as given in patent US10399940B2, “Substituted pyrrolidines and methods of use” (AbbVie S.à.r.l., priority 2016, dated 2019).
Where two headings read alike, the source gives them in different places.

Molecular target: T1, F508delCFTR (Homo sapiens, UniProt P13569, DEL508-508)
T1 construct: expressed in transfected cells; host or cells: CFBE41o- (human lung derived epithelial cell line), doxycycline-inducible expression
Assay: Cell Surface Expression-Horse Radish Peroxidase (CSE-HRP) assay
Type: cell-based
Settings: CFBE41o-F508delCFTR-HRP cells; for Maximum % activity (with co-corrector): with co-corrector (2 μM); for Maximum % activity (with co-corrector) / Maximum % activity (without co-corrector): normalized to on-plate positive control, highest concentration 20 μM
Procedure, shortened: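 Surface F508delCFTR-HRP was read by luminol luminescence after 18–24 h compound exposure at 33 °C, without or with 2 μM co-corrector. Doses were eight 3-fold steps from 20 μM, in doxycycline-induced (0.5 μg/mL, 72 h) CFBE41o- cells. % activity was scaled to the on-plate 2 μM positive control minus DMSO; EC50 came from a variable-slope sigmoid fit.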

[1] = test compound without co-corrector, 18-24 hours at 33° C., read-out: EC50 (without co-corrector)
[2] = with co-corrector (2 μM of 3-[(2R,4R)-4-({[1-(2,2-difluoro-1,3-benzodioxol-5-yl)cyclopropyl]carbonyl}amino)-7-methoxy-3,4-dihydro-2H-chromen-2-yl]benzoic acid), read-out: EC50 (with co-corrector)

T1 sequence (P13569 with tags, fused parts or gaps DEL508-508): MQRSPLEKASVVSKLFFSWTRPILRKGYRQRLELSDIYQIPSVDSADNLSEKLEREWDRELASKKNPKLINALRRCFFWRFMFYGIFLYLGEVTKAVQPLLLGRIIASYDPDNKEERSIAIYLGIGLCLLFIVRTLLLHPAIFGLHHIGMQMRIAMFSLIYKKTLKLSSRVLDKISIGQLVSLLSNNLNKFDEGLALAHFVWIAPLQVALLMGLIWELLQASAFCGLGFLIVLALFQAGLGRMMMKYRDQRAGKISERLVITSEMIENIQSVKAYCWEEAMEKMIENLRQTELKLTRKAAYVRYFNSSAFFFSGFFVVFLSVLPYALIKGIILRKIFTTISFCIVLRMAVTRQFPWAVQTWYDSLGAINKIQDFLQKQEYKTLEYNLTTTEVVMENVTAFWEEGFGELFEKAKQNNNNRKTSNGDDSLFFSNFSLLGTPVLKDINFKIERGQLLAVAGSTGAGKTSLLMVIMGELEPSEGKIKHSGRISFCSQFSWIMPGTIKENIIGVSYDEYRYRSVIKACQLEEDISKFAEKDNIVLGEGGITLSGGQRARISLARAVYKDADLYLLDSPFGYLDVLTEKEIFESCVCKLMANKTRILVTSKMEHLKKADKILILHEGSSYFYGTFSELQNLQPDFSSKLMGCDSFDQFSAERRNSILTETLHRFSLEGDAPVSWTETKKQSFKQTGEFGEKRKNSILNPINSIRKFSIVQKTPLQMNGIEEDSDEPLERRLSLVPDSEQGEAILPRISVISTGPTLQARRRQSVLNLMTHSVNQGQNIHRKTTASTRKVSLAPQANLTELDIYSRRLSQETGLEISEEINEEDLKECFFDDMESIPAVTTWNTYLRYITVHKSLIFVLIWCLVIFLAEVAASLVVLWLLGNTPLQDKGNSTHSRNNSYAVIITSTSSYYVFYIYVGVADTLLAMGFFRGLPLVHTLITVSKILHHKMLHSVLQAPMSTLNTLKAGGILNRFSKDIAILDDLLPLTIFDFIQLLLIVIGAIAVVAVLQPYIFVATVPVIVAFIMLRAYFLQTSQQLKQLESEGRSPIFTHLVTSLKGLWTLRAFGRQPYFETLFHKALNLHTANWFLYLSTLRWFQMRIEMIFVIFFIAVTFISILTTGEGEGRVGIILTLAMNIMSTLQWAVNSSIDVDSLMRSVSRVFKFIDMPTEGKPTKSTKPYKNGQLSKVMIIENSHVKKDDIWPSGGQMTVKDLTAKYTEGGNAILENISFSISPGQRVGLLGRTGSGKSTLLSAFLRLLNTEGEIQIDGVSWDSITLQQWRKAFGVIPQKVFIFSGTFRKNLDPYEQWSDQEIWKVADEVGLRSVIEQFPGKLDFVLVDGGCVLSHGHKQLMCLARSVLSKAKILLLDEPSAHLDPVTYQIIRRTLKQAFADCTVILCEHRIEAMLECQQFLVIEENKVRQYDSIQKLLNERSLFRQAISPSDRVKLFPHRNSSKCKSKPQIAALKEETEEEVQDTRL

| SMILES | EC50 [1] [nM] | EC50 [2] [nM] | Maximum % activity (with co-corrector) | Maximum % activity (without co-corrector) |
| --- | --- | --- | --- | --- |
| COc1ncc(C2CC3CCC2C3)cc1CO[C@H]1[C@H](C(C)(C)C)[C@@H](C(=O)O)N(C(=O)C2CCCCC2)[C@H]1c1ccccc1 (stereo partly drawn) [Example 55, (2S,3R,4S,5S)-4-{[5-(bicyclo[2.2.1]heptan-2-yl)-2-methoxypyridin-3-yl]methoxy}-3-tert-butyl-1-(cyclohexanecarbonyl)-5-phenylpyrrolidine-2-carboxylic acid] | 1000 to 10000 | 1000 to 10000 | +++ (≥350) | ++ (≥100 and <200) |
| COc1ncc(C2CCC2)cc1CO[C@H]1[C@H](C(C)(C)C)[C@@H](C(=O)O)N(C(=O)C2CCCCC2)[C@H]1c1ccccc1F [Example 56, (2S,3R,4S,5S)-3-tert-butyl-4-[(5-cyclobutyl-2-methoxypyridin-3-yl)methoxy]-1-(cyclohexanecarbonyl)-5-(2-fluorophenyl)pyrrolidine-2-carboxylic acid] | < 1000 | < 1000 | +++ (≥350) | ++ (≥100 and <200) |
| COc1ncc(C2CCCC2)cc1CO[C@H]1[C@H](C(C)(C)C)[C@@H](C(=O)O)N(C(=O)C2CCCCC2)[C@H]1c1ccccc1F [Example 57, (2S,3R,4S,5S)-3-tert-butyl-1-(cyclohexanecarbonyl)-4-[(5-cyclopentyl-2-methoxypyridin-3-yl)methoxy]-5-(2-fluorophenyl)pyrrolidine-2-carboxylic acid] | 1000 to 10000 | 1000 to 10000 | +++ (≥350) | ++ (≥100 and <200) |
| COc1ncc(C2CC3CCC2C3)cc1CO[C@H]1[C@H](C(C)(C)C)[C@@H](C(=O)O)N(C(=O)C2CCCCC2)[C@H]1c1ccccc1F (stereo partly drawn) [Example 58, (2S,3R,4S,5S)-4-{[5-(bicyclo[2.2.1]heptan-2-yl)-2-methoxypyridin-3-yl]methoxy}-3-tert-butyl-1-(cyclohexanecarbonyl)-5-(2-fluorophenyl)pyrrolidine-2-carboxylic acid] | < 1000 | < 1000 | +++ (≥350) | ++ (≥100 and <200) |
| COc1ncc(N2CCCC2)cc1CO[C@H]1[C@H](C(C)(C)C)[C@@H](C(=O)O)N(C(=O)C2CCCCC2)[C@H]1c1ccccc1F [Example 59, (2S,3R,4S,5S)-3-tert-butyl-1-(cyclohexanecarbonyl)-5-(2-fluorophenyl)-4-{[2-methoxy-5-(pyrrolidin-1-yl)pyridin-3-yl]methoxy}pyrrolidine-2-carboxylic acid] | 1000 to 10000 | 1000 to 10000 | ++ (≥150 and <350) | + (<100) |
| COc1ncc(C(C)(C)C)cc1CO[C@H]1[C@H](C(C)(C)C)[C@@H](C(=O)O)N(C(=O)C2CCCCC2)[C@H]1c1ccccc1 [Example 60, (2S,3R,4S,5S)-3-tert-butyl-4-[(5-tert-butyl-2-methoxypyridin-3-yl)methoxy]-1-(cyclohexanecarbonyl)-5-phenylpyrrolidine-2-carboxylic acid] | < 1000 | < 1000 | +++ (≥350) | ++ (≥100 and <200) |
| COc1ncc(C(C)(C)C)cc1CO[C@H]1[C@H](C(C)(C)C)[C@@H](C(=O)O)N(C(=O)[C@@H]2CCC[C@@H](OC)C2)[C@H]1c1ccccc1 [Example 61, (2S,3R,4S,5S)-3-tert-butyl-4-[(5-tert-butyl-2-methoxypyridin-3-yl)methoxy]-1-[(1R,3R)-3-methoxycyclohexane-1-carbonyl]-5-phenylpyrrolidine-2-carboxylic acid] | < 1000 | < 1000 | +++ (≥350) | +++ (≥200) |
